Data: ChEMBL document CHEMBL1201862, “PubChem BioAssay data set” (2004)
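Each compound was tested at five concentrations against cells in 96-well plates for 48 hours. GI50: concentration for 50% inhibition of growth.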 The source made the active and inactive calls. Cut-off read from the data, not from the text of the source: active = GI50 up to about 1.1 µM and inactive = higher.

Assays:
Assay in all cases: inhibition of tumour cell growth, NCI panel, 48 h
SF-295 = test system: SF-295
SW-620 = test system: SW-620
OVCAR-3 = test system: OVCAR-3
KM12 = test system: KM12
SN12C = test system: SN12C
HL-60 = test system: HL-60
RPMI-8226 = test system: RPMI-8226
SNB-75 = test system: SNB-75
HT-29 = test system: HT-29
MDA-MB-435 = test system: MDA-MB-435
SR = test system: SR
PC-3 = test system: PC-3
T47D = test system: T47D
CAKI-1 = test system: CAKI-1
OVCAR-8 = test system: OVCAR-8
HOP-62 = test system: HOP-62
HCT-15 = test system: HCT-15
UO-31 = test system: UO-31
DU-145 = test system: DU-145
SK-MEL-2 = test system: SK-MEL-2
MCF7 = test system: MCF7
A549 = test system: A549
HCT-116 = test system: HCT-116
Malme-3M = test system: Malme-3M
K562 = test system: K562
HCC 2998 = test system: HCC 2998
A498 = test system: A498
MDA-MB-231 = test system: MDA-MB-231
OVCAR-5 = test system: OVCAR-5
OVCAR-4 = test system: OVCAR-4
HOP-92 = test system: HOP-92
NCI/ADR-RES = test system: NCI/ADR-RES
NCI-H226 = test system: NCI-H226
BT-549 = test system: BT-549
Hs-578T = test system: Hs-578T
SF-268 = test system: SF-268
LOX IMVI = test system: LOX IMVI
EKVX = test system: EKVX
UACC-62 = test system: UACC-62
M14 = test system: M14
COLO 205 = test system: COLO 205
CCRF-CEM = test system: CCRF-CEM
SK-MEL-28 = test system: SK-MEL-28
IGROV-1 = test system: IGROV-1
MOLT-4 = test system: MOLT-4
UACC-257 = test system: UACC-257
U-251 = test system: U-251
NCI-H460 = test system: NCI-H460
NCI-H522 = test system: NCI-H522
SK-OV-3 = test system: SK-OV-3
NCI-H23 = test system: NCI-H23
SNB-19 = test system: SNB-19
SK-MEL-5 = test system: SK-MEL-5
MDA-N = test system: MDA-N
ACHN = test system: ACHN
RXF 393 = test system: RXF 393
786-0 = test system: 786-0
TK-10 = test system: TK-10
SF-539 = test system: SF-539

Measured: GI50

O=CC(O)C(O)C1OC(=O)c2cc(O)c(O)c(O)c2C2=C(O)C(O)=C3OC(=O)c4c(c(O)c(O)c5c4C3C2C(=O)O5)-c2c(cc(O)c(O)c2O)C(=O)OCC1O (stereo not drawn)
20.3 µM: HCT-15
inactive: SF-295 26.4 µM | SW-620 16.9 µM | OVCAR-3 18.2 µM | KM12 10.4 µM | SN12C 15.2 µM | HL-60 12.3 µM | RPMI-8226 24.5 µM | SNB-75 27.4 µM | HT-29 15.7 µM | MDA-MB-435 16.5 µM | SR 24.1 µM | PC-3 43.7 µM | T47D 37.5 µM | CAKI-1 18.1 µM | OVCAR-8 20.1 µM | HOP-62 72.6 µM | UO-31 14.7 µM | DU-145 17.9 µM | SK-MEL-2 33 µM | MCF7 17.2 µM | A549 24.5 µM | HCT-116 15.4 µM | Malme-3M 81.8 µM | K562 20.7 µM | HCC 2998 24.8 µM | A498 44.9 µM | MDA-MB-231 19.1 µM | OVCAR-5 24 µM | OVCAR-4 16.7 µM | HOP-92 18 µM | NCI/ADR-RES 88.5 µM | NCI-H226 21.4 µM | BT-549 > 100 µM | Hs-578T 67.1 µM | SF-268 28.4 µM | LOX IMVI 13.6 µM | EKVX 23.7 µM | UACC-62 29.2 µM | M14 22.4 µM | COLO 205 23.2 µM | CCRF-CEM 20.4 µM | SK-MEL-28 44.3 µM | IGROV-1 51.6 µM | MOLT-4 20.7 µM | UACC-257 49.5 µM | U-251 19.2 µM | NCI-H460 26.2 µM | NCI-H522 35.6 µM | SK-OV-3 25.9 µM | NCI-H23 78 µM | SNB-19 57.8 µM | SK-MEL-5 25.9 µM | MDA-N 19 µM | ACHN 44.2 µM | RXF 393 > 100 µM | 786-0 16.3 µM

CCOC(=O)NC(Nc1cccc(F)c1)(C(F)(F)F)C(F)(F)F
> 100 µM: HCT-15
inactive: SF-295 > 100 µM | SW-620 > 100 µM | TK-10 > 100 µM | OVCAR-3 > 100 µM | KM12 > 100 µM | SN12C > 100 µM | HL-60 > 100 µM | RPMI-8226 > 100 µM | SNB-75 > 100 µM | HT-29 > 100 µM | MDA-MB-435 > 100 µM | SR 7 µM | PC-3 > 100 µM | T47D > 100 µM | CAKI-1 > 100 µM | OVCAR-8 > 100 µM | HOP-62 > 100 µM | UO-31 4.94 µM | DU-145 > 100 µM | SK-MEL-2 > 100 µM | MCF7 > 100 µM | A549 > 100 µM | HCT-116 > 100 µM | Malme-3M > 100 µM | K562 48.4 µM | HCC 2998 > 100 µM | A498 > 100 µM | MDA-MB-231 > 100 µM | OVCAR-5 > 100 µM | HOP-92 > 100 µM | NCI/ADR-RES > 100 µM | NCI-H226 > 100 µM | BT-549 > 100 µM | Hs-578T > 100 µM | SF-268 > 100 µM | LOX IMVI > 100 µM | EKVX > 100 µM | UACC-62 86.5 µM | M14 > 100 µM | COLO 205 > 100 µM | CCRF-CEM > 100 µM | SK-MEL-28 > 100 µM | IGROV-1 > 100 µM | MOLT-4 > 100 µM | UACC-257 > 100 µM | U-251 > 100 µM | NCI-H460 > 100 µM | NCI-H522 > 100 µM | SK-OV-3 > 100 µM | NCI-H23 > 100 µM | SNB-19 > 100 µM | SK-MEL-5 > 100 µM | MDA-N > 100 µM | ACHN > 100 µM | RXF 393 > 100 µM | 786-0 > 100 µM | SF-539 > 100 µM

O=C1CCc2ccc(O)c(c2)Oc2ccc(cc2)C(Sc2ccccc2)CCO1 (stereo not drawn)
inactive: SF-295 17.4 µM | SW-620 17 µM | TK-10 16 µM | OVCAR-3 10.9 µM | KM12 15 µM | SN12C 15.8 µM | HL-60 17.7 µM | RPMI-8226 13.5 µM | SNB-75 6.49 µM | HT-29 15.9 µM | MDA-MB-435 17.1 µM | SR 13.1 µM | PC-3 6.32 µM | T47D 7.74 µM | CAKI-1 14.1 µM | OVCAR-8 18.1 µM | HOP-62 12.9 µM | UO-31 14.4 µM | DU-145 17.8 µM | SK-MEL-2 15.8 µM | MCF7 12.1 µM | A549 18.6 µM | HCT-116 16.2 µM | Malme-3M 13.9 µM | K562 15.7 µM | HCC 2998 17.1 µM | A498 17.4 µM | MDA-MB-231 3.85 µM | OVCAR-5 17.1 µM | OVCAR-4 12.2 µM | HOP-92 10 µM | NCI/ADR-RES 14.1 µM | NCI-H226 15 µM | BT-549 14.4 µM | Hs-578T 14.7 µM | SF-268 15.7 µM | LOX IMVI 12.5 µM | EKVX 12.5 µM | UACC-62 15.1 µM | M14 15.1 µM | COLO 205 17.3 µM | CCRF-CEM 10.8 µM | SK-MEL-28 15.4 µM | IGROV-1 13.3 µM | MOLT-4 22.1 µM | UACC-257 16 µM | U-251 16 µM | NCI-H522 13.2 µM | SK-OV-3 34.3 µM | NCI-H23 13.1 µM | SNB-19 19.7 µM | SK-MEL-5 12.1 µM | MDA-N 16.2 µM | ACHN 15.1 µM | RXF 393 17.8 µM | 786-0 16 µM | SF-539 15.8 µM
13.7 µM: HCT-15
